Experimental data taken from ChEMBL document CHEMBL1201862, “PubChem BioAssay data set” (2004).
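Exposure lasted 48 hours, with cells grown in 96-well plates and compounds tested at five concentrations. GI50: concentration for 50% inhibition of growth.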 Activity calls are given as the source filed them. Cut-off read from the data, not from the text of the source: active = GI50 up to about 1.1 µM and inactive = higher.

Key:
Test in all cases: NCI tumour cell line growth inhibition, 48 h
NCI-H226 = system: NCI-H226
KM12 = system: KM12
TK-10 = system: TK-10
HCC 2998 = system: HCC 2998
BT-549 = system: BT-549
HCT-15 = system: HCT-15
SK-MEL-5 = system: SK-MEL-5
NCI/ADR-RES = system: NCI/ADR-RES
OVCAR-3 = system: OVCAR-3
SNB-75 = system: SNB-75
T47D = system: T47D
MCF7 = system: MCF7
SK-OV-3 = system: SK-OV-3
MOLT-4 = system: MOLT-4
SF-295 = system: SF-295
UACC-62 = system: UACC-62
M14 = system: M14
LOX IMVI = system: LOX IMVI
CCRF-CEM = system: CCRF-CEM
RPMI-8226 = system: RPMI-8226

Row | Structure (SMILES) | GI50 (NCI-H226) | GI50 (KM12) | GI50 (TK-10) | GI50 (HCC 2998) | GI50 (BT-549) | GI50 (HCT-15) [µM] | GI50 (SK-MEL-5) | GI50 (NCI/ADR-RES) | GI50 (OVCAR-3) | GI50 (SNB-75) | GI50 (T47D) | GI50 (MCF7) | GI50 (SK-OV-3) | GI50 (MOLT-4) | GI50 (SF-295) | GI50 (UACC-62) | GI50 (M14) | GI50 (LOX IMVI) | GI50 (CCRF-CEM) | GI50 (RPMI-8226)
1 | O=C(c1ccco1)N(C(=S)OC12CC3CC(CC(C3)C1)C2)c1ccccc1 | 27.2 µM (inactive) | 31.2 µM (inactive) | 42.3 µM (inactive) | 25.1 µM (inactive) | 34.5 µM (inactive) | 28.2 | 17.7 µM (inactive) | 28.6 µM (inactive) | 28.1 µM (inactive) | 48.5 µM (inactive) | 47.2 µM (inactive) | 26.2 µM (inactive) | 23.4 µM (inactive) | 24.4 µM (inactive) | 27.7 µM (inactive) | 23.4 µM (inactive) | 20.9 µM (inactive) | 26.7 µM (inactive) | 16.9 µM (inactive) | –
2 | COc1c(-c2nc3ccc(N4CCN(C)CC4)cc3[nH]2)cc(OC)c2[nH]c(COC(C)=O)nc12 | > 100 µM (inactive) | 31.3 µM (inactive) | 71.4 µM (inactive) | – | > 100 µM (inactive) | > 100 | 94.6 µM (inactive) | > 100 µM (inactive) | > 100 µM (inactive) | 9.4 µM (inactive) | 24.8 µM (inactive) | 38.7 µM (inactive) | 63.7 µM (inactive) | 45 µM (inactive) | 71.8 µM (inactive) | > 100 µM (inactive) | 19.6 µM (inactive) | 30.8 µM (inactive) | 29.2 µM (inactive) | 34.7 µM (inactive)
3 | O=[N+]([O-])c1ccc(S[C@@H]2[C@H]3c4c(-c5ccccc5)[nH]c(-c5ccccc5)c4[C@@H]2C[C@H]3Cl)cc1 | 6.71 µM (inactive) | 3.05 µM (inactive) | 4.99 µM (inactive) | – | 3.66 µM (inactive) | 2.39 | 4.66 µM (inactive) | 2.87 µM (inactive) | 3.33 µM (inactive) | 2.15 µM (inactive) | 1.93 µM (inactive) | 2.31 µM (inactive) | 9.98 µM (inactive) | – | 3.71 µM (inactive) | 2.83 µM (inactive) | 3.23 µM (inactive) | 3.1 µM (inactive) | – | –
4 | CC1(C)CC[C@]2(C)[C@@H](O)C[C@]3(C)C(=CC[C@@H]4[C@@]5(C)CC[C@H](O)C(C)(C)[C@@H]5CC[C@]43C)[C@@H]2C1 | 35 µM (inactive) | 41.4 µM (inactive) | 27.9 µM (inactive) | – | 93.1 µM (inactive) | 81.1 | 35.3 µM (inactive) | 40 µM (inactive) | 65.2 µM (inactive) | – | 9.79 µM (inactive) | 37.9 µM (inactive) | 14.9 µM (inactive) | > 100 µM (inactive) | 29.4 µM (inactive) | 58.7 µM (inactive) | 93.1 µM (inactive) | 16.4 µM (inactive) | > 100 µM (inactive) | –
5 | NC(=S)NNCC(=O)CC(O)(C(F)(F)F)C(F)(F)Cl (centres undefined) | > 100 µM (inactive) | > 100 µM (inactive) | > 100 µM (inactive) | – | > 100 µM (inactive) | > 100 | > 100 µM (inactive) | > 100 µM (inactive) | > 100 µM (inactive) | 29.6 µM (inactive) | 64.7 µM (inactive) | > 100 µM (inactive) | > 100 µM (inactive) | > 100 µM (inactive) | > 100 µM (inactive) | > 100 µM (inactive) | > 100 µM (inactive) | > 100 µM (inactive) | > 100 µM (inactive) | > 100 µM (inactive)
6 | CC(=O)O[C@H]1C(=O)[C@@]2(C)[C@H]([C@H](OC(=O)c3ccccc3)[C@]3(O)C[C@H](OC(=O)[C@H](O)[C@@H](NC(=O)c4ccc(N(C)C)cc4)c4ccccc4)C(C)=C1C3(C)C)[C@]1(OC(C)=O)CO[C@@H]1C[C@@H]2O | 0.008 µM (active) | < 0.005 µM (active) | 0.0723 µM (active) | < 0.005 µM (active) | 0.0188 µM (active) | 0.337 | < 0.005 µM (active) | 2.21 µM (inactive) | < 0.005 µM (active) | < 0.005 µM (active) | – | < 0.005 µM (active) | 0.0262 µM (active) | 0.00631 µM (active) | 0.0119 µM (active) | < 0.005 µM (active) | < 0.005 µM (active) | < 0.005 µM (active) | < 0.005 µM (active) | < 0.005 µM (active)
7 | O=C(O)c1ccccc1/N=N/c1c(O)c(S(=O)(=O)O)cc2cc(S(=O)(=O)O)ccc12 | > 100 µM (inactive) | 84.3 µM (inactive) | > 100 µM (inactive) | > 100 µM (inactive) | > 100 µM (inactive) | > 100 | > 100 µM (inactive) | > 100 µM (inactive) | > 100 µM (inactive) | > 100 µM (inactive) | > 100 µM (inactive) | > 100 µM (inactive) | > 100 µM (inactive) | > 100 µM (inactive) | > 100 µM (inactive) | > 100 µM (inactive) | > 100 µM (inactive) | – | > 100 µM (inactive) | –
8 | CCn1c(=O)c2c3ccc(OC)cc3[nH]c2c2ccc(OC)cc21 | > 100 µM (inactive) | 8.18 µM (inactive) | > 100 µM (inactive) | 21.2 µM (inactive) | 79.4 µM (inactive) | 41.2 | 37.2 µM (inactive) | 32.9 µM (inactive) | 37.5 µM (inactive) | 19.8 µM (inactive) | 24.6 µM (inactive) | 50.1 µM (inactive) | 80.7 µM (inactive) | 22.6 µM (inactive) | 67.1 µM (inactive) | 63.2 µM (inactive) | 36.1 µM (inactive) | – | 29.2 µM (inactive) | –
9 | Cc1ccc(Nc2nc(=O)c3c4ccccc4n(C(=O)OC(C)(C)C)c3s2)cc1 | – | 16.7 µM (inactive) | 37.8 µM (inactive) | – | 26.6 µM (inactive) | 22.3 | 13.2 µM (inactive) | 10.6 µM (inactive) | 23.1 µM (inactive) | > 100 µM (inactive) | 39.2 µM (inactive) | – | > 100 µM (inactive) | 53 µM (inactive) | 23 µM (inactive) | 18.5 µM (inactive) | 14.7 µM (inactive) | 18.7 µM (inactive) | 30.3 µM (inactive) | 17.8 µM (inactive)
10 | COc1cc(S(=O)(=O)Nc2ccc(-c3csc(N4C(=O)CSC4c4cccs4)n3)cc2)ccc1Cl (centres undefined) | 27.9 µM (inactive) | 20.4 µM (inactive) | – | 15.6 µM (inactive) | 23.6 µM (inactive) | 32.6 | 64 µM (inactive) | > 100 µM (inactive) | 51.5 µM (inactive) | 20.2 µM (inactive) | – | 16.4 µM (inactive) | 56.4 µM (inactive) | 8.67 µM (inactive) | > 100 µM (inactive) | – | 46.9 µM (inactive) | 18.7 µM (inactive) | 4.98 µM (inactive) | 8.67 µM (inactive)
11 | Cc1ccc(S(=O)(=O)N/N=C2/CCC3(O)CC2(C)CCC2[C@H]3CC2(C)C)cc1 (some centres undefined) | 27.2 µM (inactive) | 32.6 µM (inactive) | 34.3 µM (inactive) | – | 32.1 µM (inactive) | 27.1 | 16.5 µM (inactive) | 28.2 µM (inactive) | 40.2 µM (inactive) | 21.4 µM (inactive) | > 100 µM (inactive) | 35.5 µM (inactive) | 32.4 µM (inactive) | 11.4 µM (inactive) | 25.1 µM (inactive) | 20.3 µM (inactive) | 43.4 µM (inactive) | 11.2 µM (inactive) | 12 µM (inactive) | 38.4 µM (inactive)
12 | O=C1/C(=C/c2ccc(O)cc2)CCC1CNc1ccc(Cl)cc1 (centres undefined) | 12.6 µM (inactive) | 0.895 µM (active) | 1.72 µM (inactive) | 3.93 µM (inactive) | 12.6 µM (inactive) | 1.3 | 4.66 µM (inactive) | 5.45 µM (inactive) | 2.28 µM (inactive) | 15.6 µM (inactive) | – | 1.34 µM (inactive) | 5.14 µM (inactive) | 1.71 µM (inactive) | 2.88 µM (inactive) | 0.367 µM (active) | 0.643 µM (active) | 0.27 µM (active) | 0.624 µM (active) | 0.755 µM (active)
13 | O=C(O)CN1CCN2CCCCCN(CC1)CCN(CC(=O)O)CC2 | > 100 µM (inactive) | 84.7 µM (inactive) | > 100 µM (inactive) | – | > 100 µM (inactive) | > 100 | > 100 µM (inactive) | 22.1 µM (inactive) | > 100 µM (inactive) | 11.4 µM (inactive) | > 100 µM (inactive) | > 100 µM (inactive) | > 100 µM (inactive) | – | > 100 µM (inactive) | > 100 µM (inactive) | > 100 µM (inactive) | > 100 µM (inactive) | > 100 µM (inactive) | > 100 µM (inactive)
14 | CC(=O)c1ccccc1NCC(=O)Nn1cnc2ccc(S(=O)(=O)Nc3ccccc3C(C)=O)cc2c1=O | > 100 µM (inactive) | > 100 µM (inactive) | > 100 µM (inactive) | > 100 µM (inactive) | > 100 µM (inactive) | > 100 | – | > 100 µM (inactive) | > 100 µM (inactive) | > 100 µM (inactive) | – | > 100 µM (inactive) | > 100 µM (inactive) | > 100 µM (inactive) | > 100 µM (inactive) | > 100 µM (inactive) | > 100 µM (inactive) | > 100 µM (inactive) | > 100 µM (inactive) | > 100 µM (inactive)
15 | Cc1ccc2c3c(cnc2n1)C(=O)OCCN3C | – | > 100 µM (inactive) | > 100 µM (inactive) | > 100 µM (inactive) | > 100 µM (inactive) | > 100 | > 100 µM (inactive) | > 100 µM (inactive) | > 100 µM (inactive) | – | > 100 µM (inactive) | > 100 µM (inactive) | – | > 100 µM (inactive) | > 100 µM (inactive) | > 100 µM (inactive) | > 100 µM (inactive) | > 100 µM (inactive) | > 100 µM (inactive) | –
